Values quoted from earlier work as cited in US11542295B2, “Use of 20-hydroxyecdysone and the derivatives thereof in the treatment of myopathies” (BIOPHYTIS, priority 2017, dated 2023).

Key:
[1] = system: young athletes; conditions: young athletes (Simakin et al., 1988); cited from earlier work
[2] = system: C2C12 mouse myotubes; conditions: C2C12 mouse myotubes in vitro; cited from earlier work
[3] = system: muscles of rats; conditions: rats in vivo; cited from earlier work

Structure (SMILES): CC(C)(O)CC[C@@H](O)[C@](C)(O)[C@H]1CC[C@@]2(O)C3=CC(=O)[C@@H]4C[C@@H](O)[C@@H](O)C[C@]4(C)[C@H]3CC[C@]12C [20-hydroxyecdysone]
- muscle mass [1]: increases
- effects on protein syntheses [2]: stimulant effects
- effects on protein syntheses in muscles [3]: stimulant effects
